Patent publication US8562949B2, “Radiolabeled dihydrotetrabenazine derivatives and their use as imaging agents” (The Trustees of the University of Pennsylvania, priority 2006, dated 2013)
“And” between values parts separate entries of the source, which are not always exact repeats. Equal entries are not always repeated.

How the values were obtained:
[1] = Metabolic stability in mouse brain; format: in vivo, mice; details: mouse striatum, 30 minutes post-injection, ethyl acetate extraction/TLC
Procedure: Two mice were injected with 200 μCi [^18F]FP-(+)-DTBZ and sacrificed at 30 minutes post-injection. The brains were removed and the striatal regions were dissected out. The striatal homogenates (prepared in PBS, 10% w/v) were extracted with 0.5 mL of ethyl acetate in the presence of a small amount of carrier (10 μg of […]). Extraction was repeated three times and the ethyl acetate layers and the buffer layers were counted separately to determine the percent extracted. […] A control sample ([^18F]FP-(±)-DTBZ mixed with normal mouse striatal homogenates in situ) was carried out in parallel for comparison.

[2] = Biodistribution of [18F]6a and [18F]6b in normal mice (iv injection); format: in vivo, ICR mice
Procedure: While under isoflurane anesthesia, 0.15 mL of a 0.1% bovine serum albumin solution containing [^18F]tracers (10-20 μCi) were injected directly into the tail vein of ICR mice (22-25 g, male) The mice (n=3 for each time point) were sacrificed by cervical dislocation at indicated time points post injection. The organs of interest were removed and weighed, and the radioactivity was counted with an automatic gamma counter. The percentage dose per organ was calculated by a comparison of the tissue counts to suitably diluted aliquots of the injected material. Total activities of blood were calculated under the assumption that they were 7% of the total body weight. The % dose/g of samples was calculated by comparing the sample counts with the count of the diluted initial dose.

## COc1cc2c(cc1OCCC[18F])CCN1C[C@@H](CC(C)C)[C@H](O)C[C@H]21 [[^18F]-(+)-6b]
[1]
  degradation: less than 5%

## COc1cc2c(cc1OCCC[18F])CCN1CC(CC(C)C)C(O)CC21 (racemic) [[^18F]6b]
[2]; 30 min p.i., normal mice
  remaining in brain (brain washout): 13%
[2]; mice, iv, 2 min
  brain uptake: 7.08 % ID/g
[2]; mice, iv, time not stated
  ST/CB ratio: 3.0
[2]; normal mice, iv, 2 min
  Organ distribution Blood: 2.60 ± 0.31 % dose/g
  Organ distribution Bone: 2.70 ± 0.44 % dose/g
  Organ distribution Brain: 7.08 % dose/g and 7.08 ± 2.17 % dose/g
  Organ distribution Heart: 6.79 ± 1.49 % dose/g
  Organ distribution Kidney: 16.1 ± 3.13 % dose/g
  Organ distribution Liver: 24.1 ± 4.93 % dose/g
  Organ distribution Lung: 7.97 ± 1.46 % dose/g
  Organ distribution Muscle: 1.17 ± 0.16 % dose/g
  Organ distribution Skin: 1.13 ± 0.25 % dose/g
  Organ distribution Spleen: 9.19 ± 0.26 % dose/g
  Ratio (vs CB) Cortex: 1.32
  Ratio (vs CB) Hippocampus: 1.13
  Ratio (vs CB) Striatum: 1.36
  Regional brain distribution Cerebellum (CB): 6.26 ± 2.89 % dose/g
  Regional brain distribution Cortex: 8.25 ± 2.51 % dose/g
  Regional brain distribution Hippocampus: 7.07 ± 1.66 % dose/g
  Regional brain distribution Striatum: 8.49 ± 1.12 % dose/g
[2]; normal mice, iv, 15 min
  Organ distribution Blood: 1.75 ± 0.07 % dose/g
  Organ distribution Bone: 3.65 ± 0.49 % dose/g
  Organ distribution Brain: 2.01 ± 0.10 % dose/g
  Organ distribution Heart: 2.43 ± 0.16 % dose/g
  Organ distribution Kidney: 5.90 ± 0.25 % dose/g
  Organ distribution Liver: 15.8 ± 1.65 % dose/g
  Organ distribution Lung: 3.58 ± 0.33 % dose/g
  Organ distribution Muscle: 1.16 ± 0.35 % dose/g
  Organ distribution Skin: 1.15 ± 0.16 % dose/g
  Organ distribution Spleen: 3.38 ± 0.49 % dose/g
  Ratio (vs CB) Cortex: 1.00
  Ratio (vs CB) Hippocampus: 1.31
  Ratio (vs CB) Striatum: 2.53
  Regional brain distribution Cerebellum (CB): 1.63 ± 0.05 % dose/g
  Regional brain distribution Cortex: 1.62 ± 0.05 % dose/g
  Regional brain distribution Hippocampus: 2.14 ± 0.16 % dose/g
  Regional brain distribution Striatum: 4.12 ± 0.52 % dose/g
[2]; normal mice, iv, 30 min
  Organ distribution Blood: 1.92 ± 0.22 % dose/g
  Organ distribution Bone: 9.62 ± 3.42 % dose/g
  Organ distribution Brain: 1.76 ± 0.27 % dose/g
  Organ distribution Heart: 2.67 ± 0.26 % dose/g
  Organ distribution Kidney: 6.80 ± 0.65 % dose/g
  Organ distribution Liver: 17.3 ± 2.00 % dose/g
  Organ distribution Lung: 3.46 ± 0.36 % dose/g
  Organ distribution Muscle: 1.53 ± 0.16 % dose/g
  Organ distribution Skin: 2.22 ± 0.20 % dose/g
  Organ distribution Spleen: 3.40 ± 0.43 % dose/g
  Ratio (vs CB) Cortex: 1.11
  Ratio (vs CB) Hippocampus: 1.97
  Ratio (vs CB) Striatum: 3.0 and 2.95
  Regional brain distribution Cerebellum (CB): 1.30 ± 0.19 % dose/g
  Regional brain distribution Cortex: 1.45 ± 0.38 % dose/g
  Regional brain distribution Hippocampus: 2.55 ± 1.20 % dose/g
  Regional brain distribution Striatum: 3.84 ± 1.05 % dose/g
[2]; normal mice, iv, 30 min, listed as [^1F]6b
  Organ distribution Bone: 9.62 % dose/g
[2]; normal mice, iv, 1 hr
  Organ distribution Blood: 1.04 ± 0.07 % dose/g
  Organ distribution Bone: 16.6 ± 1.60 % dose/g
  Organ distribution Brain: 0.91 ± 0.25 % dose/g
  Organ distribution Heart: 1.74 ± 0.14 % dose/g
  Organ distribution Kidney: 3.63 ± 0.30 % dose/g
  Organ distribution Liver: 10.4 ± 0.95 % dose/g
  Organ distribution Lung: 2.15 ± 0.12 % dose/g
  Organ distribution Muscle: 1.05 ± 0.41 % dose/g
  Organ distribution Skin: 1.38 ± 0.03 % dose/g
  Organ distribution Spleen: 2.05 ± 0.05 % dose/g
  Ratio (vs CB) Cortex: 1.10
  Ratio (vs CB) Hippocampus: 1.35
  Ratio (vs CB) Striatum: 2.71
  Regional brain distribution Cerebellum (CB): 0.77 ± 0.06 % dose/g
  Regional brain distribution Cortex: 0.85 ± 0.12 % dose/g
  Regional brain distribution Hippocampus: 1.04 ± 0.16 % dose/g
  Regional brain distribution Striatum: 2.08 ± 0.27 % dose/g
[2]; normal mice, iv, 2 hr
  Organ distribution Blood: 0.56 ± 0.07 % dose/g
  Organ distribution Bone: 17.8 ± 1.83 % dose/g
  Organ distribution Brain: 0.53 ± 0.05 % dose/g
  Organ distribution Heart: 1.02 ± 0.09 % dose/g
  Organ distribution Kidney: 2.40 ± 0.51 % dose/g
  Organ distribution Liver: 8.53 ± 1.73 % dose/g
  Organ distribution Lung: 1.40 ± 0.09 % dose/g
  Organ distribution Muscle: 0.56 ± 0.11 % dose/g
  Organ distribution Skin: 1.24 ± 0.53 % dose/g
  Organ distribution Spleen: 1.15 ± 0.41 % dose/g
  Ratio (vs CB) Cortex: 0.91
  Ratio (vs CB) Hippocampus: 1.12
  Ratio (vs CB) Striatum: 1.94
  Regional brain distribution Cerebellum (CB): 0.45 ± 0.01 % dose/g
  Regional brain distribution Cortex: 0.41 ± 0.06 % dose/g
  Regional brain distribution Hippocampus: 0.50 ± 0.06 % dose/g
  Regional brain distribution Striatum: 0.87 ± 0.24 % dose/g
